{
  "source": "patent US20200289645A1",
  "about": "“TREATMENTS AND METHODS FOR CONTROLLING HYPERTENSION” (Georgetown University, priority 2017, published 2020)",
  "key": {"[1]": {"system": "isolated renal afferent arterioles", "assay": "Isolated perfused renal afferent arteriole contractility", "assay_type": "cell-based, mice", "text": "FIG. 4 depicts the effect of BP1 on isolated renal afferent arteriole contractility. 4A, Isolated perfused renal afferent arteriole mounted on a perfusion pipette with diameter recorded. The internal diameter is 10 to 11 micrometers under control conditions (=100%). 4B to 4D, Impact of BP1 induction and/or FGF2 knockout (FGF2−/−) on angiotensin II (AngII) or norepinephine (NE) contractility. 4B, Effect of conditional BP1 expression (BP1 ON/OFF). […] The effect of AngII in FGF2−/− mice is shown for comparison (see panel C). 4C, Effect of AngII in afferent arterioles from FGF2−/− mice. […] BP1 alone or FGF2 alone are shown for comparison. 4D, Effect of NE in afferent arterioles from wt and FGF2−/− mice. Contractility induced by NE is not affected in FGF2−/− mice.\nIsolated vessels provide an approach for the analysis of vascular function that is not affected by systemic cardiovascular regulation in the intact animal. BP1 up-regulation related to human hypertension was found in the kidneys that are key organs in systemic blood pressure regulation. Thus, the impact of BP1 expression was evaluated in isolated renal afferent arterioles that are the major renal resistance vessels. […] Addition of AngII to this preparation leads to a concentration-dependent constriction. […] Thus, the AngII contractile effect depends on FGFR signaling in isolated vessels as well as in arterioles in vivo (FIG. 3B).\nThe blockade of AngII effects in vessels from wt mice by an FGFR kinase inhibitor (FIG. 4B) corroborates the crucial role of FGF signaling for AngII efficacy. It is noteworthy that vessels from FGF2−/− mice still contracted in response to other ligands. For example, the effect of norepinephrine (NE) was indistinguishable between FGF2−/− and wt controls (FIG. 4D) indicating a selective crosstalk between AngII and FGF signaling. Renal AngII receptor 1 (AT1R) mRNA was not changed upon induction of BP1 expression or in FGF2−/− mice.\nBecause FGF2 and BP1 are extracellularly acting proteins, recombinant proteins were added to renal afferent arterioles from FGF2−/− mice to assess if this would rescue AngII vasoconstriction."}, "[2]": {"system": "FGF2−/− mice", "assay": "Telemetric MAP in FGF2-/- mice after exogenously administered AngII", "assay_type": "in vivo", "conditions": "FGF2−/− relative to wild-type mice", "text": "Kidneys contain amongst the highest concentrations of FGF2 protein that is immobilized in the extracellular matrix and can be released by BP1. To assess a contribution by FGF2, the efficacy of AngII was investigated and the crosstalk with BP1 in renal afferent arterioles from FGF2−/− mice. […] Also, the effect of exogenously administered AngII on MAP was reduced."}, "[3]": {"system": "cremaster arterioles", "assay": "Cremaster arteriole contractility in vivo (superfusion, intravital microscopy)", "parameters": "species or system mice", "protocol": "FIG. 3 depicts the effect of the induction of BP1 expression on cremaster arteriole contractility in vivo. 3A, Representative images of a single arteriole in a live animal at baseline, and after constriction or dilation by superfusion with AngII or acetylcholine respectively. The vessel diameter is recorded by intravital microphotography. 3B, Dose-response of AngII on arteriole diameter in mice with BP1 OFF (open symbols) or ON (for 48 hours; closed symbols). The FGFR kinase inhibitor PD173074 (PD) was administered intraperitoneally to a subset of animals (red symbols). […] 3C, Dose response of Phenylephrine (PE) on cremaster arteriole diameter in mice with BP1 OFF (open symbols) or ON (for 48 hours; closed symbols). Mean±SEM, n=4 animals/group.\nTo evaluate whether conditional BP1 expression sensitized resistance vessels in vivo, cremaster arterioles were exposed in anesthetized mice and superfused locally with vasoconstrictor or -dilator ligands. Representative intravital microscopic images of an arteriole at baseline, with AngII (constriction) or acetylcholine (dilation) superfusion is shown in FIG. 3A. […] This sensitization was prevented by pretreatment of animals with the FGFR kinase inhibitor PD173074 23 (FIG. 3B).\nThus, phenylephrine (PE) was selected as a ligand that activates alphal-adrenergic receptors. […] Neither the EC50 (2 μM) nor the maximal effect of PE were different between the BP1 ON and OFF groups (FIG. 3C). Thus, conditional expression of BP1 sensitizes arterioles to AngII in vivo. This sensitization was dependent on FGFR signaling."}, "[4]": {"system": "conscious transgenic mice", "assay": "Mean arterial pressure (MAP) by telemetry in conscious conditional BP1 transgenic mice", "assay_type": "in vivo", "conditions": "night time MAP", "protocol": "FIG. 2 depicts the effect of conditional expression of the BP1 transgene and of inhibitors on mean arterial pressure (MAP) and heart rate (HR). 2A, 2B, Circadian changes in MAP (A) and HR (B) by telemetry of conscious mice. Averages for 10 days before (BP1 OFF, open symbols) and 10 days after the induction of the BP1 transgene (BP1 ON, closed symbols) relative to the 24 hour clock time. Dark and light periods are indicated. Mean±SEM values (for n=10 time points) from one representative animal (total n=6). P<0.0001 by non-linear regression analysis and ANOVA. 2C, Effect of induction of BP1 transgene expression on night time MAP. Gene expression was induced by switching from a tetracycline containing to a regular chow (+DOX to −DOX; open and filled circles). Non-transgenic littermates (non-TG; triangles) were subjected to the same diet schedule. Mean±SEM of night time MAP; n=6 per group. ANOVA analysis of BP1 ON versus OFF or versus control group. ***, P<0.0001. 2D, 2E, Effect of treatment with candesartan (D) or tempol (E) on night time MAP of animals with the BP1 transgene OFF or ON. Mean±SEM; n=5 per group. *, P<0.05; **, P<0.01; ***, P<0.0001 by ANOVA.\nTo test the effect of conditional expression of BP1, mean arterial pressure (MAP) was monitored by telemetry in conscious transgenic mice. Under control conditions (BP1 OFF) there was a circadian rhythm of MAP that varied by 20 mm Hg between periods of activity (night time) and rest (day time). A sinus wave function described the day/night variation of the data (FIG. 2A). […] This overall increase in MAP coincided with a significant decrease in the heart rate and a dampened amplitude of circadian regulation (FIG. 2B). The increase of blood pressure occurred within two days of a switch to the tetracycline-free, regular diet in parallel with the induction of the BP1 transgene (FIG. 2C).\nThe increase in MAP and decrease in heart rate after induction of BP1 expression (FIG. 2A,B) was reminiscent of an angiotensin-like vasopressor effect that depends on reactive oxygen species (ROS) signaling. […]"}},
  "note": "“Also recorded” adds a separate entry of the source.",
  "data": [
    {"compound": "CC[C@H](C)[C@H](NC(=O)[C@H](Cc1ccc(O)cc1)NC(=O)[C@@H](NC(=O)[C@H](CCCNC(=N)N)NC(=O)[C@@H](N)CC(=O)O)C(C)C)C(=O)N[C@@H](Cc1c[nH]cn1)C(=O)N1CCC[C@H]1C(=O)N[C@@H](Cc1ccccc1)C(=O)O", "note": "[AngII, Angiotensin II]", "values": [
      {"measurement": "AngII effect in afferent arterioles after conditional BP1 transgene expression", "setting": "[1]; BP1 ON versus OFF", "value": "increases the AngII effect; also recorded: significantly enhanced effect"},
      {"measurement": "contraction of afferent arterioles from FGF2-/- mice", "setting": "[1]; FGF2−/− mice", "value": "abolished; also recorded: failed to induce a contraction"},
      {"measurement": "effect of exogenously administered AngII on MAP", "setting": "[2]", "value": "reduced"}
    ]},
    {"compound": "CCN(CC)CCCCNc1ncc2cc(-c3cc(OC)cc(OC)c3)c(NC(=O)NC(C)(C)C)nc2n1", "note": "[PD173074]", "values": [
      {"measurement": "effect on AngII response in control animals", "setting": "[3]; BP1 OFF, intraperitoneal", "value": "small and insignificant effect"},
      {"measurement": "effect on BP1-induced sensitization to AngII vasoconstriction", "setting": "[3]; BP1 ON, pretreatment, intraperitoneal", "value": "prevented"},
      {"measurement": "effect on AngII constriction of afferent arterioles", "setting": "[1]; 100 nM pretreatment of vessels", "value": "inhibited the effect of AngII"}
    ]},
    {"compound": "CNC[C@H](O)c1cccc(O)c1", "note": "[PE, phenylephrine]", "values": [
      {"measurement": "sensitization of vessels by BP1 expression", "setting": "[3]; BP1 ON versus OFF", "value": "did not sensitize"},
      {"measurement": "EC50", "setting": "[3]; Mus musculus, not different between BP1 ON and OFF groups, read-out: EC50 of PE on cremaster arteriole diameter", "value": 2000, "unit": "nM"}
    ]},
    {"compound": "CC1(C)CC(O)CC(C)(C)N1[O]", "note": "[Tempol, tempol]", "values": [
      {"measurement": "effect on basal MAP", "setting": "[4]; BP1 OFF", "value": "reduced basal MAP"},
      {"measurement": "effect on increase of MAP after BP1 induction", "setting": "[4]", "value": "prevented the increase in MAP after BP1 induction"},
      {"measurement": "effect on increase of MAP after BP1 induction", "setting": "[4]; listed as tempol", "value": "prevented"}
    ]},
    {"compound": "NC[C@H](O)c1ccc(O)c(O)c1", "note": "[norepinephrine]", "values": [
      {"measurement": "contractility in FGF2-/- versus wt afferent arterioles", "setting": "[1]", "value": "indistinguishable"},
      {"measurement": "contractility in FGF2-/- versus wt afferent arterioles", "setting": "[1]; listed as NE", "value": "not affected"}
    ]},
    {"compound": "FGF2: recombinant fibroblast growth factor 2 protein", "values": [
      {"measurement": "rescue of AngII vasoconstriction in afferent arterioles from FGF2-/- mice", "setting": "[1]; recombinant proteins added, 20 ng/ml for 30 min", "value": "did not impact the AngII response"}
    ]}
  ]
}
